Results from patent US6281342A, “Pradimicin compounds” (Bristol-Myers Squibb Company, priority 1994, dated 2001).
Converted amounts (≈) assume the structure as drawn. Read-outs that look alike come from different tables or passages of the source.

Tests used:
[1] = test system: Saccharomyces cerevisiae ATCC 9763; test: MIC, two-fold agar dilution, S. cerevisiae ATCC 9763; format: cell-based; settings: ATCC9763, YMA pH 7.0, 28° C., 40 hours
Description: (§1) Minimum inhibitory concentrations (MICs) of nine 4'-N-substituted pradimicin derivatives were determined by two-fold agar dilution method on phosphate-buffered yeast morphology agar (YMA, pH 7.0, Difco Laboratories). A 5-μl of fungal cell suspension containing 2×10^6 cells/ml (2×10^7 cells/ml for Trichophyton mentagrophytes) were spotted on the surface of the agar plates containing test compound. MICs were recorded after 40-hour incubation at 28° C. except for T. mentagrophytes, which required 60-hour incubation to produce visually evaluable growth on the drug-free control plates and were defined as the lowest antibiotic concentrations showing no growth or less than five discrete colonies per spot.
(§2) Medium: yeast morphology agar + 1/15 M phosphate buffer (pH 7.0)
(§3) Incubation conditions: 28° C., 40 hours (C. albicans ATCC 38247 & T.
(§4) Medium: Yeast morphology agar + 1/15 phosphate buffer (pH 7.0).

[2] = test system: Cryptococcus neoformans D49; test: MIC, two-fold agar dilution, C. neoformans D49; format: cell-based; settings: YMA pH 7.0, 28° C., 40 hours
Description: as §1, §2, §3, §4

Candida albicans A9540 [3] = test: animal or person; format: in vivo, male ICR mice infected with Candida albicans A9540; settings: Candida albicans, A9540, 480 h, C. albicans, mice; for responders at 6.3 mg/kg: 6.3 mg/kg iv; for responders at 6.3 mg/kg / responders at 12.5 mg/kg / responders at 25 mg/kg / responders at 50 mg/kg: 20th day post-infection, read-out: S/T (No. of survivors/tested) (converted); for responders at 12.5 mg/kg: 12.5 mg/kg iv; for responders at 25 mg/kg: 25 mg/kg iv; for responders at 50 mg/kg: 50 mg/kg iv; for ED50: Table 2, iv, 95% confidence limits in parentheses, read-out: PD50 (50% protection dose)
Description: (§5) The in vivo therapeutic efficacies of seven 4'-N-substituted pradimicin derivatives, KHM-1, KHM-2, KHM-3, KHM-4, KHM-5, KHM-6 and KHM-7 were evaluated in the mouse infected with Candida albicans A9540 and Aspergillus fumigatusIAM 2034. Groups of five specific-pathogen-free male ICR mice weighing 20-25 g at each dose level were intravenously infected with approximately 10 times the 50% lethal dose of C. albicans A9540 (1×10^6 cells/mouse) or A. fumigatus IAM 2034 (1×10^7 cells/mouse). Immediately after the fungal infection, test compounds dissolved with 10% DMSO in distilled water were intravenously given to the mouse at the dosed volume of 0.1 ml/10 g of body weight. […] Untreated control animals died 7 to 13 days post-infection.

Candida tropicalis 85-8 = test: MIC, two-fold agar dilution, C. tropicalis 85-8; format: cell-based; settings: 858, YMA pH 7.0, 28° C., 40 hours
Description: as §1, §2, §3, §4

Candida albicans 83-2-14 = test: MIC, two-fold agar dilution, C. albicans 83-2-14; format: cell-based; settings: 83214, YMA pH 7.0, 28° C., 40 hours
Description: as §1, §2, §3, §4

[4] = test system: Candida albicans IAM 4888; test: MIC, two-fold agar dilution, C. albicans IAM 4888; format: cell-based; settings: IAM4888, YMA pH 7.0, 28° C., 40 hours
Description: as §1, §2, §3, §4

[5] = Water solubility at neutral pH in PBS containing Ca^2+/Mg^2+; format: physicochemical; settings: pbs with ca2+/mg2+; Table 3; water-solubility at neutral pH in phosphate buffered saline containing Ca^2+/Mg^2+
Description: The compounds of the invention have good water solubility. Typically, the water solubility is greater than 10 mg/ml when measured at neutral pH in PBS containing Ca^2+ /Mg^2+, preferably greater than 20 mg/ml.
^2) Water-solubility at neutral pH in phosphate buffered saline
containing Ca^2+ /Mg^2+.

Candida albicans A9540 [6] = test: MIC, two-fold agar dilution, C. albicans A9540; format: cell-based
Description: as §1, §2, §3, §4

[7] = test system: Candida albicans ATCC 32354; test: MIC, two-fold agar dilution, C. albicans ATCC 32354; format: cell-based; settings: ATCC32354, YMA pH 7.0, 28° C., 40 hours
Description: as §1, §2, §3, §4

[8] = test system: Candida albicans ATCC 38247; test: MIC, two-fold agar dilution, C. albicans ATCC 38247; format: cell-based; settings: ATCC38247, YMA pH 7.0, 28° C., 60 hours (table footnote)
Description: as §1, §2, §3
(§6) mentagrophytes #4329: 28° C., 60 hours).
as §4

[9] = test system: Aspergillus fumigatus IAM 2034; test: MIC, two-fold agar dilution, A. fumigatus IAM 2034; format: cell-based; settings: IAM2034
Description: as §1, §2, §3, §4

[10] = test system: Trichophyton mentagrophytes #4329; test: MIC, two-fold agar dilution, T. mentagrophytes #4329; format: cell-based
Description: as §1, §2, §3, §6, §4

[11] = test system: Candida tropicalis IFO 10241; test: MIC, two-fold agar dilution, C. tropicalis IFO 10241; format: cell-based; settings: IFO10241, YMA pH 7.0, 28° C., 40 hours
Description: as §1, §2, §3, §4

[12] = test system: Cryptococcus neoformans IAM 4514; test: MIC, two-fold agar dilution, C. neoformans IAM 4514; format: cell-based; settings: IAM4514
Description: as §1, §2, §3, §4

[13] = test system: Aspergillus fumigatus IAM 2034; test: Therapeutic efficacy in Aspergillus fumigatus systemic infection in mice; format: in vivo, male ICR mice infected with Aspergillus fumigatus IAM 2034; settings: IAM2034, 480 h; for responders at 6.3 mg/kg: 6.3 mg/kg iv; for responders at 6.3 mg/kg / responders at 12.5 mg/kg / responders at 25 mg/kg / responders at 50 mg/kg: 20th day post-infection, read-out: S/T (No. of survivors/tested) (converted); for responders at 12.5 mg/kg: 12.5 mg/kg iv; for responders at 25 mg/kg: 25 mg/kg iv; for responders at 50 mg/kg: 50 mg/kg iv
Description: as §5

[14] = Candida albicans A9540, YMA pH 7.0, 28° C., 40 hours, read-out: MIC
[15] = Table 3, Candida albicans A9540, YMA, read-out: MIC Ca-4
[16] = Aspergillus fumigatus IAM 2034, YMA pH 7.0, 28° C., 40 hours, read-out: MIC
[17] = Table 3, Aspergillus fumigatus IAM 2034, YMA, read-out: MIC Af-3
[18] = Table 3, Trichophyton mentagrophytes #4329, YMA, read-out: MIC TM-4
[19] = Trichophyton mentagrophytes #4329, YMA pH 7.0, 28° C., 60 hours, read-out: MIC
[20] = Cryptococcus neoformans IAM 4514, YMA pH 7.0, 28° C., 40 hours, read-out: MIC
[21] = Table 3, Cryptococcus neoformans IAM 4514, YMA, read-out: MIC Cn-2
[22] = Aspergillus fumigatus, A. fumigatus, mice
[23] = Aspergillus fumigatus, Table 2, A. fumigatus, mice, iv, 95% confidence limits in parentheses, read-out: PD50 (50% protection dose)

Row | SMILES | MIC [1] [µg/mL] | MIC [2] [µg/mL] | responders at 6.3 mg/kg (Candida albicans A9540 [3]) [%] | responders at 12.5 mg/kg (Candida albicans A9540 [3]) [%] | responders at 25 mg/kg (Candida albicans A9540 [3]) [%] | responders at 50 mg/kg (Candida albicans A9540 [3]) [%] | ED50 (Candida albicans A9540 [3]) [mg/kg] | MIC (Candida tropicalis 85-8) [µg/mL] | MIC (Candida albicans 83-2-14) [µg/mL] | MIC [4] [µg/mL] | solubility [5] [mg/mL] | MIC (Candida albicans A9540 [6]; [14]) [µg/mL] | MIC (Candida albicans A9540 [6]; [15]) [µg/mL] | MIC [7] [µg/mL] | MIC [8] [µg/mL] | MIC [9, 16] [µg/mL] | MIC [9, 17] [µg/mL] | MIC [10, 18] [µg/mL] | MIC [10, 19] [µg/mL] | MIC [11] [µg/mL] | other results
1 | COc1cc(O)c2c(c1)C(=O)c1c(cc3c(c1O)-c1c(cc(C)c(C(=O)N[C@H](C)C(=O)O)c1O)[C@H](O[C@@H]1O[C@H](C)[C@H](NC#N)[C@H](O[C@@H]4OC[C@@H](O)[C@H](O)[C@H]4O)[C@H]1O)[C@H]3O)C2=O [KHM-2, 4'-N-Cyanopradimicin C] | 3.1 (≈ 3.64 µM) | 3.1 (≈ 3.64 µM) | 20 | 40 | 80 | 100 | 13 | 12.5 (≈ 14.7 µM) | 6.3 (≈ 7.4 µM) | 3.1 (≈ 3.64 µM) | > 20 | 3.1 (≈ 3.64 µM) | 3.1 (≈ 3.64 µM) | 3.1 (≈ 3.64 µM) | 1.6 (≈ 1.88 µM) | 3.1 (≈ 3.64 µM) | 3.1 (≈ 3.64 µM) | 12.5 (≈ 14.7 µM) | 12.5 (≈ 14.7 µM) | 12.5 (≈ 14.7 µM) | MIC [12, 20]: 1.6 µg/mL (≈ 1.88 µM); MIC [12, 21]: 1.6 µg/mL (≈ 1.88 µM); responders at 6.3 mg/kg [13, 22]: 0%; responders at 12.5 mg/kg [13, 22]: 20%; responders at 25 mg/kg [13, 22]: 40%; responders at 50 mg/kg [13, 22]: 60%; ED50 [13, 23]: 27 mg/kg
2 | COc1cc(O)c2c(c1)C(=O)c1c(cc3c(c1O)-c1c(cc(C)c(C(=O)N[C@H](CO)C(=O)O)c1O)[C@H](O[C@@H]1O[C@H](C)[C@H](NC#N)[C@H](O[C@@H]4OC[C@@H](O)[C@H](O)[C@H]4O)[C@H]1O)[C@H]3O)C2=O [KHM-4, 4'-N-Cyanopradimicin FA2] | 3.1 (≈ 3.57 µM) | 6.3 (≈ 7.26 µM) | 0 | 20 | 60 | 80 | 20 | 12.5 (≈ 14.4 µM) | 6.3 (≈ 7.26 µM) | 6.3 (≈ 7.26 µM) | > 20 | 6.3 (≈ 7.26 µM) | 6.3 (≈ 7.26 µM) | 3.1 (≈ 3.57 µM) | 3.1 (≈ 3.57 µM) | 6.3 (≈ 7.26 µM) | 6.3 (≈ 7.26 µM) | 12.5 (≈ 14.4 µM) | 12.5 (≈ 14.4 µM) | 12.5 (≈ 14.4 µM) | MIC [12, 20]: 3.1 µg/mL (≈ 3.57 µM); MIC [12, 21]: 3.1 µg/mL (≈ 3.57 µM); responders at 6.3 mg/kg [13, 22]: 0%; responders at 12.5 mg/kg [13, 22]: 0%; responders at 25 mg/kg [13, 22]: 0%; responders at 50 mg/kg [13, 22]: 0%; ED50 [13, 23]: > 50 mg/kg; ED50 ([13]; Table 3, Aspergillus fumigatus IAM 2034, iv, read-out: PD50 (mice) Af-3): > 50 mg/kg
